The values below are quoted from earlier work in US20120141611A1, “METHODS AND COMPOSITIONS USING ERGOTHIONEINE TO TREAT A VARIETY OF HEALTH RELATED FACTORS” (Oxis International Inc., priority 2010, published 2012).

One data set relates to intestinal polyps. The settings on record: mouse, in vivo; cited from earlier work.
For data set [1] the following is noted: people taking vitamin C supplements, 1,032 subjects; cited from earlier work.
For data set [2] the following is noted: single elderly person, stable seven years later; cited from earlier work.
The conditions of data set [3]: 537 osteoarthritis patients, after 27 weeks; cited from earlier work.

For the compound `COc1cc(/C=C/C(=O)CC(=O)/C=C/c2ccc(O)c(OC)c2)ccc1O` [curcumin], the “Reduction of intestinal polyps” value in the data set with intestinal polyps is on record as 75%.
For `O=C1O[C@H]([C@@H](O)CO)C(O)=C1O` [vitamin C], in data set [1], the “Reduced likelihood of developing osteoarthritis in the knee” value is listed as 11%.
Take Cyanocobalamin [vitamin B12]: the Dementia outcome in data set [2] is listed as “their dementia disappeared”.
For the compound hyaluronic acid, the Joint pain entry in data set [3] is “significantly reduce joint pain while resting and while walking”.
